From patent publication US20240262814A1, “MODULATORS OF TREX1” (Constellation Pharmaceuticals, Inc., priority 2021, published 2024)

Tests used:
[1] = system: hTREX1 HCT116; experiment: hTREX1 HCT116 Cell Assay (Lucia luciferase reporter, Type I interferon induction); type: cell-based; settings: Homo sapiens, HCT-116, HCT116 dual cells, 4h compound, then pBR322/BstNI DNA transfection, 48h
Source text: HCT116 dual cells (Invivogen, San Diego, CA, USA) are derived from the human HCT116 colorectal carcinoma cell line. Cells have been selected for the stable integration of SEAP and Luciferase reporter genes, which expression is under the control of 5 tandem response elements for NF-KB/AP1 and STAT1/STAT2, respectively. The cell line was used to monitor Type I interferon induction and subsequent signaling by measuring the activity of the Lucia luciferase secreted in the culture medium.
HCT116 cells were plated in 96-well plate(s) at 40,000 cells/well in 100 uL DMEM supplemented with 10% FBS and 25 mM Hepes (pH 7.2-7.5). After overnight settling, cells were treated with TREX1i for 4h (maximum DMSO fraction was 0.1%) before 1 ug/mL pBR322/BstNI restriction digest (New England Biolabs, Ipswich, MA, USA) was transfected with Lipofectamine LTX (ThermoFisher, Grand Island, NY, USA), according to product manual recommendations. Briefly, Lipofectamine LTX (0.35 uL/well) was diluted in OptiMEM (5 uL/well). pBR322/BstNI (100 ng/well) was diluted in OptiMEM (5 uL/well) before Plus reagent (0.1 uL/100 ng DNA) was added. After 5 min incubation at room temperature, the DNA mixture was mixed dropwise with the diluted Lipofectamine LTX. After an additional 10 min incubation, the transfection mix (10 uL/well) was added to the cells. Cells were maintained at 37 C for 48h before monitoring the Lucia Luciferase activity from the cell culture medium.

[2] = biological target: T1, human TREX1 (Homo sapiens, UniProt Q9NSU2); experiment: hTREX1 Biochemical Assay (fluorescence, dsDNA substrate degradation); settings: full length human TREX1, 4 h pre-incubation, 18 h reaction at 25° C.
T1 construct: N-terminally His-Tev tagged full length human TREX1; made in house; host or cells: E. coli
T1 sequence (Q9NSU2 1-314): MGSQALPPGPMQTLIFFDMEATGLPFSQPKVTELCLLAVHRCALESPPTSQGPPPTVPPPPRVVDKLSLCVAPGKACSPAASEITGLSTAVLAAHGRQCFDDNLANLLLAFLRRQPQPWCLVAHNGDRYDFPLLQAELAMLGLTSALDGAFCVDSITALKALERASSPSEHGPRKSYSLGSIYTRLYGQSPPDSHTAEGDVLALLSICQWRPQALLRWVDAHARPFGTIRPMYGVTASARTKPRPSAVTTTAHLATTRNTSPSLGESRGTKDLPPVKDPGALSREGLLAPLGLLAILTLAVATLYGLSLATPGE
In short: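 His-Tev-tagged full-length E. coli-expressed enzyme (4 pM final) preincubated with compound 4 h at 25° C., then 60 nM quenched-fluorophore dsDNA added in Tris pH 7.4, 5 mM MgCl2, 1% DMSO. After 18 h at 25° C., EDTA-quenched; fluorescence 615 nm (ex 570 nm); IC50 from four-parameter fit versus EDTA and no-inhibitor controls.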

| Compound | IC50 [1] [nM] | IC50 [2] [nM] |
| --- | --- | --- |
| CC(c1nc(C(=O)Nc2cnoc2)c(O)c(=O)n1C)C(c1ccccc1)c1ccccc1 (single isomer, unassigned) [Example 1 Isomer 1, 2-(1,1-diphenylpropan-2-yl)-5-hydroxy-N-(isoxazol-4-yl)-1-methyl-6-oxo-1,6-dihydro pyrimidine-4-carboxamide] | > 100 | > 100 |
| CC(c1nc(C(=O)Nc2cnoc2)c(O)c(=O)n1C)C(c1ccccc1)c1ccccc1 (single isomer, unassigned) [Example 1 Isomer 2, 2-(1,1-diphenylpropan-2-yl)-5-hydroxy-N-(isoxazol-4-yl)-1-methyl-6-oxo-1,6-dihydro pyrimidine-4-carboxamide] |  | 1 to 10 |
| C[C@H](c1nc(C(=O)Nc2cnoc2)c(O)c(=O)n1C)[C@H](c1ccccc1)c1ccccc1Cl (single isomer, unassigned) [Example 2 Isomer 3, 2-(1-(2-chlorophenyl)-1-phenylpropan-2-yl)-5-hydroxy-N-(isoxazol-4-yl)-1-methyl-6-oxo-1,6-dihydropyrimidine-4-carboxamide] |  | < 1 |
| CC(c1nc(C(=O)Nc2cnoc2)c(O)c(=O)n1C)C(c1ccccc1)c1ccccc1C#N (single isomer, unassigned) [Example 3 Isomer 4] |  | < 1 |
| CC(c1nc(C(=O)Nc2cnoc2)c(O)c(=O)n1C)C(c1ccccc1C#N)c1ccccc1C#N (single isomer, unassigned) [Example 4 Isomer 2] | < 10 | < 1 |
| CC(c1nc(C(=O)Nc2cnoc2)c(O)c(=O)n1C)C(c1ccccc1)c1cc(F)ccc1C#N (single isomer, unassigned) [Example 6 Isomer 4] |  | < 1 |
| CC(c1nc(C(=O)Nc2cnoc2)c(O)c(=O)n1C)C(c1ccccc1)c1cc(Cl)ccc1C#N (single isomer, unassigned) [Example 8 Isomer 2] |  | < 1 |
| CC(c1nc(C(=O)Nc2cnoc2)c(O)c(=O)n1C)C(c1ccccc1)c1ccc(Cl)cc1C#N (single isomer, unassigned) [Example 9 Isomer 4] |  | < 1 |
| CC(c1nc(C(=O)Nc2cnoc2)c(O)c(=O)n1C)C(c1ccccc1Cl)c1ccccc1C#N (single isomer, unassigned) [Example 10 Isomer 1] |  | < 1 |
| CC(c1nc(C(=O)Nc2cnoc2)c(O)c(=O)n1C)C(c1cc(F)cc(F)c1)c1ccccc1C#N (single isomer, unassigned) [Example 11 Isomer 3] |  | < 1 |
| C[C@H](c1nc(C(=O)Nc2cnoc2)c(O)c(=O)n1C)[C@H](c1ccccc1)c1ccccc1C(F)(F)F (single isomer, unassigned) [Example 14 Isomer 2, 5-Hydroxy-N-(isoxazol-4-yl)-1-methyl-6-oxo-2-(1-phenyl-1-(2-(trifluoromethyl)phenyl)propan-2-yl)-1,6-dihydropyrimidine-4-carboxamide] | > 100 | 1 to 10 |
| C[C@H](c1nc(C(=O)Nc2cnoc2)c(O)c(=O)n1C)C(c1ccccc1Cl)c1ccccc1Cl (single isomer, unassigned) [Example 15 Isomer 1, 2-(1,1-bis(2-chlorophenyl)propan-2-yl)-5-hydroxy-N-(isooxazol-4-yl)-1-methyl-6-oxo-1,6-dihydropyrimidine-4-carboxamide] | 10 to 100 | < 1 |
| CC(c1nc(C(=O)Nc2cnoc2)c(O)c(=O)n1C)C(c1ccccc1)c1cc(C(=O)N(C)C)ccc1C#N (single isomer, unassigned) [Example 17 Isomer 3] | 10 to 100 | < 1 |
| Cn1c([C@H](C(c2ccccc2)c2ccccc2)C(F)(F)F)nc(C(=O)Nc2cnoc2)c(O)c1=O (single isomer, unassigned) [Example 20 Isomer 1, 5-Hydroxy-N-(isoxazol-4-yl)-1-methyl-6-oxo-2-(1,1,1-trifluoro-3,3-diphenylpropan-2-yl)-1,6-dihydropyrimidine-4-carboxamide] | > 100 | 10 to 100 |
| Cn1c([C@@H](C(c2ccccc2C#N)c2ccccc2C#N)C(F)(F)F)nc(C(=O)Nc2cnoc2)c(O)c1=O (single isomer, unassigned) [Example 21 Isomer 1, 2-(3,3-bis(2-cyanophenyl)-1,1,1-trifluoropropan-2-yl)-5-hydroxy-N-(isoxazol-4-yl)-1-methyl-6-oxo-1,6-dihydropyrimidine-4-carboxamide] | < 10 | < 1 |
